Reference: US20110191897A1, “Plants Tolerant to HPPD Inhibitor Herbicides” (Bayer CropScience AG, priority 2009, published 2011)
Several values for one entry are separate records, joined by “and”; a condition that tells them apart may be missing. Identical values can stand only once.

Columns and labels:
[1] = test system: T0 tobacco plants expressing the FMP37 HPPD (FMP37t); experiment: Greenhouse response of T0 tobacco plants to tembotrione; format: in vivo, Nicotiana tabacum; conditions: 100 g AI/ha, two weeks after treatment
From the text: As an example, rooted plants containing the T-DNA PromCaMV35S-OTP-HIS6—FMP37t-TerCaMV35S, will be transferred to the greenhouse under standard growth conditions. Following a period of acclimation of two weeks, the T0 plants will be treated with a mixture containing 100 g tembotrione/ha prepared from a WP20 (wettable powder 20%) formulation supplemented with ammonium sulfate and methyl ester raps oil. Two weeks after the treatment, the symptoms due to the application of the herbicides will be evaluated. The plants are classified in four categories. The treated plants evaluated as “0” are looking like the untreated tobacco plants. The plants evaluated as “1” display temporary light bleaching phenotype due to the application of the herbicides. The plants evaluated as “2” display permanent light to strong bleaching symptoms. Finally the plants evaluated as “3” are looking like wild type tobacco plants submitted to the same treatment.

[2] = test system: T1 tobacco plants with FMP37e coding for the HPPD FMP37; experiment: Glasshouse spray trial, herbicidal damage; format: in vivo, Nicotiana tabacum; conditions: line 113, individual plants, 100 gAl/ha, 7DAT
Experimental: (§1) T0 Tobacco plants containing either the gene from Arabidopsis coding for HPPD or the gene FMP37e from Blepharisma japonicum coding for FMP37 HPPD, mentioned above (Example 3), were transferred to the glasshouse (28/20° C.), to develop further and produce seeds. Those seeds were harvested and put on soil (ED73 mixed with sand and osmocote Pro) to germinate in the glasshouse (28/20° C.). Three to four weeks later, plantlets were transferred to single pots containing the soil mentioned above. Two weeks later, plants of a size 4-6 cm diameter were sprayed with either • tembotrione at 100 Al/ha prepared from a WP20 (wettable powder 20%) formulation supplemented with ammonium sulfate and methyl ester raps oil, or • isoxaflutole at 100 Al/ha prepared from a WP20 formulation supplemented with ammonium sulfate and methyl ester raps oil, or • bicyclopyrone at 100 gAl/ha prepared from a WP20 formulation supplemented with ammonium sulfate and methyl ester raps oil, or • “blind formulation” made from a WP20 formulation without active ingredient (Al) supplemented with ammonium sulfate and methyl ester raps oil, and were then transferred to a growth chamber with adequate light conditions (20000Lux).

[3] = test system: T1 tobacco plants with Arabidopsis HPPD; experiment: Glasshouse spray trial, herbicidal damage; format: in vivo, Nicotiana tabacum; conditions: 100 gAl/ha, 7DAT
Experimental: as §1

[4] = test system: tobacco plants with FMP37t-h, PAT and 2mEPSPS (pFCO112); experiment: Glasshouse trial of tobacco with three tolerance genes; format: in vivo, Nicotiana tobacum; conditions: 9 DAT
Experimental: A binary vector for tobacco transformation is, for example, constructed with the CaMV35 promoter driving the expression of the gene FMP37t-h (SEQ ID No. 15), with a codon usage optimized for the expression in dicotyledoneous plants and at its 5′ extremity was added a sequence coding for an OTP, and further upstream a sequence TEV (Tobacco etch virus) to improve the stability of the mRNA in plants followed by the CaMV35S terminator. The nucleotide sequence of the gene FMP37t-h is given in SEQ ID No. 15. Additionally, the transformation vector also contains a PAT gene cassette in which the gene is driven by a CaVM35S promoter and followed by a CaMV35S terminator for glufosinate based selection during the transformation process and a 2mEPSPS gene cassette in which the gene is driven by an histone promoter from Arabidopsis to confer tolerance to the herbicide glyphosate to the transformed plants (see FIG. 3 H). The binary vector was called pFCO112. The above vector was used to transform leaf disks obtained from Nicotiana tobacum plants, according to Example 3.
Transgenic tobacco plants were transferred to the greenhouse and treated with glyphosate at a rate of 1121 g Al/ha. Seeds were produced from such tolerant tobacco plants and harvested. These seeds were put on soil to germinate in the glasshouse. Three to four weeks later, 50 plantlets per event were transferred to single pots. Two weeks later, plants of a size 4-6 cm were sprayed either with:
[…] […] Non-transgenic tobacco plants were completely killed by treatment using one or more of the above herbicides.

[5] = test system: T0 rice plants with FMP37e; experiment: Rice glasshouse trial, response to tembotrione; format: in vivo; conditions: 100 g AI/ha, 7 DAT
Experimental: (§2) T0 rooted plantlets (either selected on phosphinothricin alone or on phosphinothricin supplemented with tembotrione) were transferred to soil in the glasshouse. Following an acclimation period, sufficiently grown plants were treated with the different HPPD inhibitor herbicides. As an example, T0 plants were sprayed with tembotrione of formulation type WP20 100 g Al/ha supplemented with ammonium sulfate and methyl ester raps oil. Seven days after the spray application, the symptoms due to the application of the herbicide were evaluated and compared the symptoms observed on wild type plants submitted to the same treatment.
(§3) The plants were classified in three categories based on the phenotype developed in response to the herbicide seven days after the treatment.

wild type rice plants = experiment: Rice glasshouse trial, response to tembotrione; format: in vivo; conditions: 100 g AI/ha, 7 DAT
Experimental: as §2, §3

[6] = target: T1, Arabidopsis thaliana HPPD (SEQ ID No. 10) (Arabidopsis thaliana, UniProt P93836); experiment: Spectrophotometric HPPD activity assay in presence of HPPD inhibitors; format: biochemical
T1 construct: made in house; host or cells: E. coli K-12 BL21 (pQE30-AtHPPD)
T1 sequence (P93836 with tags, fused parts or gaps): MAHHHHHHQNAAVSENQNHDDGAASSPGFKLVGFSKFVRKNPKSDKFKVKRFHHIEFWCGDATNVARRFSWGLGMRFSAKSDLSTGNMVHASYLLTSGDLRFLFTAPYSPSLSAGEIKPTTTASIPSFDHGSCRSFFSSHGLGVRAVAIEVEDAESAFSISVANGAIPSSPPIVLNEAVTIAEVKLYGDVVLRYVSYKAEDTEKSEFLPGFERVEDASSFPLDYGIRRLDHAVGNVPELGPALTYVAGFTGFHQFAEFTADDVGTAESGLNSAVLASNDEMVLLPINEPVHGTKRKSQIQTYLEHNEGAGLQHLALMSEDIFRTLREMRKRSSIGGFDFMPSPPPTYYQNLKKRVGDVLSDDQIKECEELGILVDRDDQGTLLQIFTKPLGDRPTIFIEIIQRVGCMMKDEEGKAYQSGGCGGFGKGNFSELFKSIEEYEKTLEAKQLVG

SMILES: CS(=O)(=O)c1ccc(C(=O)C2C(=O)CCCC2=O)c(Cl)c1COCC(F)(F)F [Tembotrione, 2-[2-chloro-4-(methylsulfonyl)-3-[(2,2,2,-tri-fluoroethoxy)methyl]benzoyl]-1,3-cyclo-hexanedione]
- number of plants in category 0 (looking like the untreated tobacco plants) [1]: 6
- number of plants in category 2 (permanent light to strong bleaching) [1]: 13
- number of plants in category 3 (like treated wild type tobacco plants) [1]: 7
- % injury [2]: 5% and 10% (2×) and 40% and 70%
- % injury ([3]; line 252, individual plants): 40%
- % injury ([3]; line 258, individual plants): 100%
- % injury ([3]; line 327, individual plants): 40% and 50%
- number of plants in Class I (no injuries) ([4]; line 634, 100 g AI/ha): 0
- number of plants in Class II (injury: 10-40%) ([4]; line 634, 100 g AI/ha): 3
- number of plants in Class III (injury: 41-100%) ([4]; line 634, 100 g AI/ha): 7
- number of plants in Class I (no injuries) ([4]; line 713, 100 g AI/ha): 0
- number of plants in Class II (injury: 10-40%) ([4]; line 713, 100 g AI/ha): 6
- number of plants in Class III (injury: 41-100%) ([4]; line 713, 100 g AI/ha): 4
- number of plants in Class I (no injuries) [5]: 1
- number of plants in Class II (injury: 10-40%) [5]: 6
- number of plants in Class III (injury: 41-100%) [5]: 16
- number of plants in Class II (injury: 10-40%) (wild type rice plants): 0
- IC50 [6]: < 2.51 µM
- % Inhibition ([6]; 1.0E−05 M): 97%
- % Inhibition ([6]; 2.5E−04 M): 97%
- % Inhibition ([6]; 2.5E−05 M): 93%
- % Inhibition ([6]; 2.5E−06 M): 82%
- % Inhibition ([6]; 5.0E−06 M): 90%
- inhibition at 5 µM ([6]; 5.0 × 10^−6M inhibitor (Table 4), read-out: percentage of inhibition): 92%
- % Inhibition ([6]; 6.3E−05 M): 97%
